Here are results for 5 molecules from PMC5449454, “Anti-Double-Stranded DNA IgG Participates in Renal Fibrosis through Suppressing the Suppressor of Cytokine Signaling 1 Signals” (Frontiers in Immunology, 2017).

Where no end group is shown, it is not given here.

The test system of one data set is MRL/lpr mice. To be noted: ref [28]; cited from earlier work. The text has this: The JAK2/STAT1 pathway mediates the renal damage in lupus models induced by anti-dsDNA antibodies. […] Moreover, STAT1 deficiency in the lupus-like chronic graft-versus-host disease model led to a prolonged but amplified increase of anti-dsDNA IgG in sera and also higher proteinuria and mortality ([29]). This phenomenon might be du ...

A further data set deals with anti-dsDNA IgG. Nature of the data set: MALDI-TOF MS, catalysis of peptide by anti-dsDNA IgG. Set-up: species or system murine. To be noted: peptide 2 µg/ml with IgG (molar ratio = 1:5), 37°C, 30 min, triplicate. The method, then: Matrix-assisted laser desorption/ionization–time of flight mass spectrometry was performed for identifying the sequences of peptide fragments. As described previously ([36]), an ABI 4800 Analyzer (AB Science, Foster City, CA, USA) was used for such analysis. The ALW (L-form or D-form) and KIR peptides (2 µg/ml) were mixed with anti-dsDNA IgG or control IgG (molar ratio = 1:5), respectively. The mixtures were incubated at 37°C for 30 min. Then, these samples were diluted in distilled water (1:100) and then mixed with the α-cyano-4-hydroxycinnamic acid matrix at a ratio of 1:1. Samples in triplicate were then loaded to the MALDI target. Mass spectrum was produced on 80 individual spectra of each spot.

The next data set addresses T1, KIR peptide (SOCS1) (Mus musculus, UniProt O35716).
T1 construct: The KIR of SOCS1 was synthesized as a 16-mer peptide (2.09 kDa); purchased Sangon Biotech Company (Shanghai, China); host or cells: chemical synthesis
The data set can be described thus: Surface plasmon resonance, JAK2 loop peptide over immobilized biotinylated KIR peptide. Format: binding. The conditions noted are these: SPR, JAK2 loop peptide 0–250 nM. The method, then:
The Biacore 3000 instrument (Biacore, Piscataway, NJ, USA) was used for the quantitation of binding affinities ([8], [35]). For anti-dsDNA IgG binding to KIR peptide, anti-dsDNA IgG (10 nM in MES buffer) was immobilized on a CM sensor chip (GE Healthcare, Port Washington, NY, USA), and then KIR peptide (0–250 nM in HEPES buffer) was run on chip. For JAK2 loop peptide binding to KIR peptide, the biotinylated KIR peptide (5 nM) was immobilized on streptavidin-coated sensor chip, followed by injection of JAK2 loop peptide (0–250 nM). A simple Langmuir model (A + B ↔ AB) was used for calculating binding kinetics.
In general terms: In SPR one partner is held on a chip, and binding of the other changes the refractive index at the surface.

Data set [1] has as its target T2, biotinylated SOCS1 kinase inhibitory region (KIR) peptide (also: biotinylated (position not given here)).
T2 construct: Captured by its biotin on streptavidin-coated sensor chips and plates; An unbiotinylated KIR peptide was run over the immobilised anti-dsDNA IgG only; also called SOCS1-KIR; biotinylated KIR peptide; source: synthetic peptide (Sangon Biotech Company)
T2 peptide: DTHFRTFRSHSDYRRI
The data set can be described thus: SPR; Biacore 3000; biotinylated KIR peptide (5 nM) immobilised on a streptavidin-coated sensor chip, JAK2 loop peptide injected at 0-250 nM; simple Langmuir model (A + B ↔ AB). To be noted: both partners purified.

The target of data set [2] is T2, biotinylated SOCS1 kinase inhibitory …. Nature of the data set: ELISA; inhibition ELISA; biotinylated KIR peptide (5 µg/ml) on streptavidin-coated 96-well plates; FITC-labeled JAK2 loop peptide (0.2 µg/ml) pre-incubated with serially diluted anti-dsDNA IgG (0.02 to 20 µg/ml) or control IgG; fluorescein intensity read. The conditions noted are these: both partners purified.

Consider `N#C/C(=C\c1ccc(O)c(O)c1)C(=O)NCc1ccccc1` [tyrphostin AG490], for which, in the data set with MRL/lpr mice, the “glomerular deposition of anti-dsDNA IgG” value was “decrease”, the “phosphorylation of JAK2” value is listed as “significantly inhibited”, the “phosphorylation of STAT1” value is recorded as “significantly inhibited” and the proteinuria entry is reported as “decrease”. Also, in the data set on MRL/lpr mice, the renal histological lesions entry is recorded as “decrease” and the “serum titer of anti-dsDNA IgG” value is given as “decrease”.
On to DTHFRTFRSHSDYRRI [KIR peptide], for which, in the data set on anti-dsDNA IgG, the “catalysis of KIR peptide by anti-dsDNA IgG” value is given as “almost catalyzed by anti-dsDNA IgG”.
The Kd is the free concentration of one partner at which half of the binding sites on the other are occupied at equilibrium, for simple one-to-one binding. Turning to LPQDKEYYKVKEP [JAK2 loop peptide], on KIR peptide (SOCS1) (Biacore 3000, biotinylated KIR peptide (5 nM) immobilized on streptavidin chip, simple Langmuir model), the affinity, expressed as Kd, was 44.6 nM. Further, the kon on KIR peptide (SOCS1) (biotinylated KIR peptide immobilized, Langmuir model, read-out: Ka (association rate)) was determined as 13500 M⁻¹ s⁻¹. On KIR peptide (SOCS1) (biotinylated KIR peptide immobilized, Langmuir model, read-out: Kd (dissociation rate)), the koff came out at 0.000603 s⁻¹.

B1: JAK2 loop peptide (peptide)
peptide: LPQDKEYYKVKEP
notes: loop region of Janus kinase 2 (JAK2), 13-mer, 1.64 kDa; the SPR methods name the 'JAK2 loop peptide' without a label; source: synthetic peptide (Sangon Biotech Company)
On to B1, for which, in data set [1], the Kd was 44.6 nM, the koff was 0.000603 s⁻¹ and the kon was 13500 M⁻¹ s⁻¹.

B2: FITC-labeled JAK2 loop peptide (peptide)
peptide: LPQDKEYYKVKEP
modifications: also: FITC-labeled (position not given here)
notes: loop region of Janus kinase 2 (JAK2), 13-mer; also called FITC–JAK2 loop; FITC (0.39 kDa)–JAK2 loop; source: synthetic peptide (Sangon Biotech Company)
Regarding B2, in data set [2], the binding result is on record as “binds”.
